Several values for one entry are separate records, joined by “and”; a condition that tells them apart may be missing. Identical values can stand only once. Like-named read-outs stand apart in the source and are kept apart here.
Assays:
[1] = cited from earlier work
MDA-MB-468 cells = test: Cell viability, ATP levels 72 h; type: cell-based, human; conditions: control MDA-MB-468 of Fig. 6f; mean
[2] = Pharmacokinetic studies in mice (LC-MS/MS); type: in vivo, B6D2F1 mice; conditions: male, B6D2F1, mouse, iv, i.v. 10 mg kg^−1
Protocol: Blood and brain tissue were collected following euthanasia at the scheduled time points of 5, 30 min, 1, 4, and 8 h following iv dosing and of 30 min, 1, 4, and 8 h following po dosing. Brain samples were immediately flash frozen in liquid nitrogen following collection and stored at −80 °C until analysis. Blood samples were collected into an EDTA tube by heart puncture and centrifuged at 17,000×g for 5 min at 4 °C to separate the plasma and immediately frozen on dry ice and stored at −80 °C until analysis. […] This was homogenized, extracted with methylene chloride, and evaporated on a GeneVac. […] Drug concentration (μM) in the brain was then modified to account for an average water space of 0.8 mL g^−1.

[3] = biological target: HSP90 pools in JNPL3 (AD transgenic) mouse brain lysate; test: Fluorescence polarization (FP) competitive binding, cy3B-GM; conditions: read-out: FP relative affinity
patient-derived GSCs = test: GSC viability (CellTiter-Glo, 48 h); type: cell-based, human; design: %Survival of cells at day 0 (ATP levels): concentration or dose not given beside the values; %Survival (ATP levels): reference not given here; conditions: for %Survival (ATP levels): 1 μM, 48 h, individual replicates, listed as PU-H71; for %Survival of cells at day 0 (ATP levels): mean

SMILES: CC(C)NCCCn1c(Sc2cc3c(cc2I)OCO3)nc2c(N)ncnc21 [Compound 1, reference compound]
- PAMPA_BBB (PAMPA-BBB permeability; Supplementary Table 6): 7.3±0.5
- Papp at 16 h, 50 μM (PAMPA-BBB permeability; pig, PAMPA, pH 7.4): 7.3 ×10⁻⁶ cm/s
- SUV average, Brain ([1]; 0.5 h, mean n=14): 0.17 SUV
- SUV average, Lung ([1]; 0.5 h, mean n=14): 0.66 SUV
- SUV average, Muscle ([1]; 0.5 h, mean n=14): 0.59 SUV
- SUV average, Brain ([1]; 3 h, mean n=24): 0.1104 SUV
- SUV average, Lung ([1]; 3 h, mean n=24): 0.37 SUV
- SUV average, Muscle ([1]; 3 h, mean n=24): 0.43 SUV
- SUV average, Brain ([1]; 24 h, mean n=24): 0.0956 SUV
- SUV average, Lung ([1]; 24 h, mean n=24): 0.18 SUV
- SUV average, Muscle ([1]; 24 h, mean n=24): 0.18 SUV
- %Survival of cells at day 0 (ATP levels) (MDA-MB-468 cells): -92.5%
- AUC ([2]; brain, read-out: brain exposure, AUC): 0.89 µM·h
- AUC ([2]; plasma, read-out: plasma exposure, AUC): 3.47 µM·h
- EC50 [3]: 11 nM
- %Survival (ATP levels) (patient-derived GSCs; GSC #5): 41.476% and 5.798% and 38.7842% and 30.5485%
- %Survival (ATP levels) (patient-derived GSCs; GSC #6): -6.57% and -27.89% and 1.15% and -9.59%
- %Survival (ATP levels) (patient-derived GSCs; GSC #7): -25.19% and -34.61% and -39.02% and -55.29%
- %Survival (ATP levels) (patient-derived GSCs; GSC #8): -77.2% and -77.91% and -68.52% and -70.63%
- %Survival (ATP levels) (patient-derived GSCs; GSC #9): -61.441% and -69.079% and -26.869% and -37.387% and -60.84%
- %Survival (ATP levels) (patient-derived GSCs; GSC #10): -33.379% and -62.081% and -10.588% and -35.788%
- %Survival (ATP levels) (patient-derived GSCs; GSC #13): 34.82% and 22.05% and 9.61% and -0.49%
- %Survival (ATP levels) (patient-derived GSCs; GSC #15): -13.07% and -44.27% and -29% and -48.76%
- %Survival (ATP levels) (patient-derived GSCs; GSC #18): -1.04% and -53.07% and -13.29% and -52.53% and 13.24% and -19.8%
- %Survival (ATP levels) (patient-derived GSCs; GSC #19): -8.867% and -20.5667% and 16.158% and 1.691%
- %Survival (ATP levels) (patient-derived GSCs; GSC #24): 12.98% and -42.57% and -22.24% and -59.3% and -24.55% and -39.04%
- %Survival (ATP levels) (patient-derived GSCs; GSC #30): -64.892% and -76.295% and -41.317% and -38.952%
- %Survival (ATP levels) (patient-derived GSCs; GSC #31): 52.42% and 26.79% and -5.03% and -0.87% and 70.08% and 45.37%
- %Survival of cells at day 0 (ATP levels) (patient-derived GSCs; GSC# 5): 29.1%
- %Survival of cells at day 0 (ATP levels) (patient-derived GSCs; GSC# 6): -10.7%
- %Survival of cells at day 0 (ATP levels) (patient-derived GSCs; GSC# 8): -73.6%
- %Survival of cells at day 0 (ATP levels) (patient-derived GSCs; GSC# 9): -51.1%
- %Survival of cells at day 0 (ATP levels) (patient-derived GSCs; GSC# 10): -35.4%
- %Survival of cells at day 0 (ATP levels) (patient-derived GSCs; GSC# 13): 16.5%
- %Survival of cells at day 0 (ATP levels) (patient-derived GSCs; GSC# 15): -33.8%
- %Survival of cells at day 0 (ATP levels) (patient-derived GSCs; GSC# 17): 16.9%
- %Survival of cells at day 0 (ATP levels) (patient-derived GSCs; GSC# 18): -21.1%
- %Survival of cells at day 0 (ATP levels) (patient-derived GSCs; GSC# 19): -2.9%
- %Survival of cells at day 0 (ATP levels) (patient-derived GSCs; GSC# 24): -29.1%
- %Survival of cells at day 0 (ATP levels) (patient-derived GSCs; GSC# 30): -55.4%
- %Survival of cells at day 0 (ATP levels) (patient-derived GSCs; GSC# 31): 31.5%

Source: paper PMC8333062, “Chemical tools for epichaperome-mediated interactome dysfunctions of the central nervous system” (Nature Communications, 2021)
